Experimental data reported in patent US20240217946A1, “ANTIDEPRESSANT AND ANXIOLYTIC SUBSTITUTED CINNAMAMIDE COMPOUND” (TASLY PHARMACEUTICAL GROUP CO., LTD., priority 2021, published 2024).
Entries after “also recorded” stand apart in the source; their conditions may differ. Where a name gives a salt, the structure may show the parent alone. Marks after values point to notes of the source that are not given here.

Tests used:
[1] = system: ICR mice; experiment: Elevated plus maze experiment in mice, single administration; format: in vivo; conditions: for OE % / OT %: 30 min after single administration
Description: 50 male ICR mice were randomly divided into 5 groups (a solvent control group, estazolam group, M2 high dosage group, M2 medium dosage group, M2 low dosage group), with 10 mice in each group. The compound M2 high, medium and low dosage groups were intragastrically administered at 20 mg/kg. 10 mg/kg and 5 mg/kg, respectively; the positive drug estazolam was intragastrically administered at 2.5 mg/kg; and the solvent control group was gavaged with an equal volume of solvent. Behavior test was performed in each group 30 min after single administration. The experiments were required to be conducted between 8:00 am and […], and all animals entered the test laboratory on the previous day.
The laboratory was dimly lit (with the lowest brightness that can distinguish the subtle activities of mice at a distance of 1.5 m) and the brightness was kept constant, with a room temperature of about 20° C., and kept quiet. Before the maze test, each mouse was placed in a 35 cm*10 cm*5 cm plastic box and left to explore freely for 5 min and then quickly placed at the central platform of an elevated plus maze, with its head facing one of the open arms, and the following indexes were recorded upon release. Each mouse was tested for 5 min. Observers observed and recorded animal activities at a distance of 1.5 m. At intervals, the maze was wiped with a wet cloth to remove feces, and then wiped with a dry cloth before a next mouse was tested.
• (1) The number of open arm entries (OE): the number of entries into any open arm, based on the fact that all four claws of the mouse entered the arm, and a complete exit of one claw from the arm indicated the completion of the entry activity; • (2) open arm time (OT): the time of entering an open arm, with the unit of seconds; • (3) the number of close arm entries (CE): the number of entries into any close arm, based on the fact that all four claws of the mouse entered the arm; • (4) close arm time (CT): the time of entering a close arm, with the unit of seconds; • (5) percentage of open arm time: OT %=OT/(OT+CT)*100%; and • (6) percentage of open arm entries: OE %=OE/(OE+CE)*100%.
70 male ICR mice were randomly divided into 7 groups (a solvent control group, estazolam group, compound M2 group, compound II-3 group, compound II-4 group, compound II-5 group, and compound II-10 group), with 10 mice in each group. The dosage of M2 and its four structurally similar compounds was determined as 20 mg/kg according to the experimental results of 3.1: the positive drug estazolam was administered intragastrically at 2.5 mg/kg; and the solvent control group was gavaged with an equal volume of solvent. Behavior test was performed in each group 30 min after single administration. The experiments were required to be conducted between 8:00 am and […], and all animals entered the test laboratory on the previous day.
The behavioral test method and behavioral observation indexes were the same as those in 3.1.
(§1) Data was expressed as mean±standard (mean±SD) difference, and statistics of data differences were made by one-way analysis of variance (ANOVA) or nonparametric test, and differences between groups were determined by P<0.05.

[2] = system: SD rats; experiment: Vogel drinking conflict experiment in rats, single administration; format: in vivo; conditions: 30 min after single dose, punishment stage 3 min, n = 8
Description: 75 male SD rats, with the body weight of 180-220 g, were fed adaptively for 1 week, water deprived for 24 h for training period test. The animals screened to be qualified were randomly divided into 7 groups (a solvent control group, estazolam group, compound M2 group, compound II-3 group, compound II-4 group, compound II-5 group and compound II-10 group) according to their body weight, with 8 rats in each group. […] results of 3.1: the positive drug estazolam was administered intragastrically at 1.24 mg/kg; and the solvent control group was gavaged with an equal volume of solvent. The grouped animals were continued to be water deprived for 24 h and were given a single dose, and tested in a punishment experiment 30 min after the single dose.
The experiment was carried out in two stages. The first stage is a training stage, in which 24 h after water deprivation, animals were placed in an operation box separately, and were allowed to fully explore until they found the bottle mouth and started to lick water (with an intensity of electric shock being 0 mA), a counter automatically recorded the number of licks within 3 min, and the animals that licked water less than 300 times were eliminated.
Observation index: the number of water licks of rats in the punishment stage.
as §1

[3] = system: pyramidal neurons in prefrontal PrL brain area; experiment: Brain slice electrophysiology, sEPSC of mPFC pyramidal neurons; format: cell-based, mice; conditions: antagonist at working concentration 10 μM
From the text: 2) Brain Slice Electrophysiological Experiment: For Detecting Effect of Compound M2 on mPFC Excitatory Synaptic Transmission • Animal: neonatal mice C57 BL/6J (20-30 days). • Instrument: vibratome (Leica), brain slice electrophysiological system (Axon). • Brain slice electrophysiological experiment method • SEPSC experiment method: Neonatal C57 mice were anesthetized and then perfused with artificial cerebrospinal fluid (ACSF). After decapitation, brain tissue was taken quickly and sliced by vibratome, with a thickness of a brain slice being 300 μm. After the brain slices were incubated at 28 °C for 1 h, whole-cell recordings of mPFC pyramidal neurons were made using a voltage clamp (−70 mV) through a brain slice electrophysiological system. The baseline recording time was 6 min, and then a drug to be tested was added through a perfusion system (the drug was dissolved using ACSF), and the recording time after adding the drug was 6-10 min. Recorded data was analyzed using Minianalysis software, and effects of the drug to be tested on sEPSC frequency and amplitude of medial prefrontal pyramidal neurons in C57 mice were compared.
All data analysis was done using spss data processing software, and data was expressed by Mean±s.e.m. One-way ANOVA was used to analyze the effect of compound M2 and the effect of compound M2 under the action of dopamine receptor antagonists on sEPSC current: and paired t test was used to analyze sEPSC experimental results. * was marked when p<0.05.
During the experiment, 10 μM Bicuculine was added to the solution to block GABA receptor, so as to record sEPSC of pyramidal neurons. The experiment investigated effects of different concentrations of compound M2 on spontaneous excitatory postsynaptic […] (sEPSC) of pyramidal neurons in prefrontal PrL brain area, as shown in FIG. 2.

[4] = system: C57 BL/6J male mice; experiment: Forced swimming experiment in mice; format: in vivo; conditions: 24 h after a single i.p. administration; fluoxetine 10 mg/kg, esketamine 10 mg/kg, M2 3-30 mg/kg
From the text: 1) Forced Swimming Experiment: Also Known as Despair Experiment, an Experiment Usually Used to Test Depression-Like Behavior of Mice
• Animal: C57 BL/6J male mice (18-20 g)
Intraperitoneal injection (i.p)

[5] = system: DA reuptake in rat brain synaptosomes; experiment: 3H-DA reuptake by rat brain synaptosomes; format: biochemical; conditions: 100 μM, positive control
From the text: At present, it is believed that absolute or relative deficiencies of the central monoamine neurotransmitters 5-hydroxytryptamine (5-HT), norepinephrine (NA) and dopamine (DA) are closely related to depression and anxiety. This experiment was designed to evaluate, by the method of in vitro monoamine reuptake, the inhibitory effect of two samples of tested compound I-5 and compound M2 on reuptake of 5-HT, NA and DA in rat brain synaptosomes. The preparation of in vitro SD rat brain synaptosomes and isotopic tracer method were employed to investigate IC50 of inhibition of monoamine reuptake of DA, 5-HT and NA in two tested samples, in order to explore the possible mechanism of antidepressant and anxiolytic effects of compound I-5 and compound M2.
Synaptosomes were separated using methods in literature to prepare brain synaptosomes. SD rats were rapidly decapitated with a small animal decapitator. After decapitation, brains were taken out quickly and precooled in an ice-water mixture, and the pia mater and vascular tissue were removed. Brain tissue was taken out. 10 times volume (ml/g) of 10 mM Tris HCl buffer (containing 0.32 M sucrose, pH 7.4) was added, an ultrasonic cell pulverizer was used for homogenization (maintaining at a low temperature), and the brain tissue was homogenized and centrifuged for 10 min (4° C., 1,000 g). After balanced centrifugation (1500 g, 10 min) at 4° C., precipitate was discarded, then supernatant was taken, and centrifugation (20000 g) was performed again for 30 min. The supernatant was discarded and the precipitate, i.e. crude extract of synaptic corpuscles, was retained. […] The precipitate was suspended in a small amount of Kreb's buffer (NaCl 118 mM, KCl 4.7 mM, CaCl2) 2.5 mM, MgSO4 1.2 mM, KH2PO4 1.2 mM, NaHCO325 mM and Glucose 11.1 mM, pH 7.2-7.4), BCA method was used for protein quantification, and the operation steps were as described in the description. […]
(§2) The percentage inhibition of isotope ligand binding by each compound was calculated according to the following equation: […]

[6] = system: mice; conditions: Patent C; cited from earlier work
[7] = system: mice; conditions: 10 mg/kg continuously for 7 days; cited from earlier work
[8] = system: NA reuptake in rat brain synaptosomes; experiment: 3H-NA reuptake by rat brain synaptosomes; format: biochemical; conditions: 100 μM, positive control
From the text: At present, it is believed that absolute or relative deficiencies of the central monoamine neurotransmitters 5-hydroxytryptamine (5-HT), norepinephrine (NA) and dopamine (DA) are closely related to depression and anxiety.
Synaptosomes were separated using methods in literature to prepare brain synaptosomes. SD rats were rapidly decapitated with a small animal decapitator. After decapitation, brains were taken out quickly and precooled in an ice-water mixture, and the pia mater and vascular tissue were removed. Brain tissue was taken out. 10 times volume (ml/g) of 10 mM Tris HCl buffer (containing 0.32 M sucrose, pH 7.4) was added, an ultrasonic cell pulverizer was used for homogenization (maintaining at a low temperature), and the brain tissue was homogenized and centrifuged for 10 min (4° C., 1,000 g). After balanced centrifugation (1500 g, 10 min) at 4° C., precipitate was discarded, then supernatant was taken, and centrifugation (20000 g) was performed again for 30 min. The supernatant was discarded and the precipitate, i.e. crude extract of synaptic corpuscles, was retained. The precipitate was further suspended in 0.32 M cold sucrose solution and then carefully laid on 1.2 M and 0.8 M (10 ml each) cold sucrose gradient solutions which had been laid sequentially on the bottom of the tube, followed by balanced centrifugation (38000 g) at 4 °C for 60 min. A suspension band at the 0.8-1.2 M sucrose interface was carefully collected with a puncture needle, which was placed in 10 ml of 0.32 M cold sucrose solution and mixed well, and equilibrium centrifuged (20000 g) at 4 °C for 30 min. The precipitate was refined brain synaptosomes. […]
as §2

[9] = comparative study (Table 13), 2.5 mg/kg i.g.
[10] = dosage exploration study (Table 12), 2.5 mg/kg i.g.
[11] = comparative study (Table 13), 20 mg/kg i.g.

Clc1ccc2c(c1)C(c1ccccc1)=NCc1nncn1-2 [Estazolam]
OE % [1, 9]: 69.60 ± 15.12 %
OT % [1, 9]: 73.46 ± 20.29 %
OE % [1, 10]: 42.78 ± 15.27 %
OT % [1, 10]: 50.12 ± 12.76 %
Number of times of drinking water ([2]; 1.24 mg/kg i.g.): 540.41/kg2.25*

CCN1CCCC1CNC(=O)c1cc(S(N)(=O)=O)ccc1OC (centres unmarked) [Sulpride]
blocking of the enhancement effect of 150 μM compound M2 on sEPSC distribution frequency [3]: can block the enhancement effect; also recorded: significantly block

CN[C@]1(c2ccccc2Cl)CCCCC1=O [esketamine, Esketamine]
antidepressant-like effect [4]: had antidepressant-like effect

CNCCC(Oc1ccc(C(F)(F)F)cc1)c1ccccc1 (centres unmarked) [fluoxetine, Fluoxetine]
antidepressant-like effect [4]: no antidepressant-like effect

Br.NCCc1cc(O)c(O)cc1O [6-Hydroxydopamine hydrobromide]
inhibition of 3H-DA reuptake by synaptosomes [5]: 100%

CC(C)CNC(=O)/C=C/c1cc(Cl)c2c(c1)OCO2 [Compound II-4]
OE % [1, 11]: 46.79 ± 9.31 %
OT % [1, 11]: 53.45 ± 8.33 %
anxiolytic activity in elevated plus maze vs solvent control group ([1]; comparative study, single intragastric administration of 20 mg/kg): significant anxiolytic activity
Number of times of drinking water ([2]; 10 mg/kg i.g.): 387.07 ± 57.31
effective anxiolytic dosage in mice elevated plus maze experiment [6]: 10 mg/kg
reserpine-induced body temperature decrease and akinesia in mice, degree of eye closure [7]: significantly antagonizing

CC(C)CNC(=O)/C=C/c1cc(I)c2c(c1)OCO2 [Compound II-3]
OE % [1, 11]: 41.04 ± 9.52 %
OT % [1, 11]: 42.99 ± 11.82 %
Number of times of drinking water ([2]; 10 mg/kg i.g.): 363.96 ± 145.26
effective anxiolytic dosage in mice elevated plus maze experiment [6]: 10 mg/kg

CNCCCN1c2ccccc2CCc2ccccc21 [Desipramine hydrochloride]
inhibition of 3H-NA reuptake by synaptosomes [8]: 100%
